Results taken from patent US12064516B2, “Pharmaceutical formulations and uses thereof” (Aldeyra Therapeutics, Inc., priority 2020, dated 2024).

How the values were obtained:
[1] = Tolerability as a systemic dose, I-1 versus ADX-102; type: in vivo
Experimental: (§1) Compound I-1 is the des-chloro analog of ADX-102. […] We have therefore investigated compound I-1 in 90-day toxicology studies in rat and dog as well as 10-day studies in man. We compared two data sets to contrast the pharmacokinetics of the two test articles. A 50 mg/kg oral dose PK study of compound I-1 was conducted in Sprague-Dawley rats using methylcellulose suspension. A pharmacokinetic study of ADX-102 was also conducted in Sprague Dawley rats at a dose of 10 mg/kg in a methylcellulose suspension that also contained Tween 80. Both studies also incorporated intravenous administration in captisol for the calculation of clearance and steady state volume of distribution.

[2] = human, in vivo, 10 days
Excerpt: (§2) This Phase 1 trial was a first-in-human, randomized, double-blind, placebo-controlled trial with a 3:1 randomization of I-1 and placebo. The trial was comprised of single ascending dose (SAD) and multiple ascending dose (MAD) protocols. MAD drug exposure was 10 days of twice-per-day (BID) administration.
(§3) A total of 54 healthy volunteers were randomized across two cohorts of varying doses: 41 subjects received I-1 and 13 subjects received placebo.
(§4) Thirty-one (31) subjects were randomized to varying doses: 23 subjects received I-1 and 8 subjects received placebo.

[3] = Phase 1 clinical trial, safety and tolerability (adverse events, labs, vitals, QTcF); conditions: for subjects with TEAEs, %: subjects who received I-1
Excerpt: as §2, §3, §4

[4] = Pharmacokinetic comparison of ADX-102 (reproxalap) and compound I-1 in rats; type: in vivo, Sprague-Dawley rats
Experimental: as §1, with “A pharmacokinetic study of ADX-102 was also conducted in Sprague Dawley rats at a dose of 10 mg/kg in a methylcellulose suspension that also contained Tween 80.” left out
Both studies were dosed by oral gavage. Bioanalysis was conducted using LC-MS/MS. Further details of the experimental approach can be found in the individual reports.

[5] = Phase 1 clinical trial, multiple ascending dose (MAD) pharmacokinetics; type: in vivo, human; conditions: for Cmax / half-life / AUC(0-t): human, in vivo; for AUC(0-t): read-out: Mean AUC0-12
Excerpt: PK data are presented below.

[6] = Phase 1 clinical trial, single ascending dose (SAD) pharmacokinetics; type: in vivo, human; conditions: healthy volunteers; for AUC(0-inf) / Cmax / half-life: human, in vivo, po
Excerpt: Pharmacokinetic data are presented below.

[7] = Pharmacokinetic comparison of ADX-102 (reproxalap) and compound I-1 in rats; type: in vivo, Sprague-Dawley rats; conditions: Sprague-Dawley, in vivo, SD Rat
[8] = Solubility of I-1 drug substance; type: physicochemical
Excerpt: Spray-drying was selected for formulation of this compound. By co-precipitating the compound with a polymer in a stable amorphous solid dispersion, spray-drying improved the dissolution rates and enhanced the bioavailability. […] This made I-1 an appropriate candidate for the application of formulation through spray drying dispersion (SDD).

[9] = SD Rat, oral gavage 50 mg/kg, 0.5% MC
[10] = Sprague-Dawley, in vivo, SD Rat, oral gavage 50 mg/kg, 0.5% MC
[11] = 100 mg, oral single dose 100 mg
[12] = 200 mg, oral single dose 200 mg
[13] = 400 mg, oral single dose 400 mg
[14] = 700 mg, oral single dose 700 mg
[15] = 1200 mg, oral single dose 1200 mg

## CC(C)(O)c1nc2ccccc2cc1N [I-1]
[1]
  tolerability as a systemic dose compared with ADX-102: generally better tolerated than ADX-102
[2]
  Influenza like illness, N subjects: 0
[3]; MAD
  intensity and relatedness of TEAEs: mild and deemed not to be related to the study drug
  subjects with TEAEs, %: 17.4%
[3]; MAD, I-1 50 mg BID
  Pruritis, % of subjects: (16.7%)
  Pruritis, N subjects: 1
  Rhinitis, N subjects: 0
  URTI, N subjects: 0
[3]; MAD, I-1 150 mg BID
  Headache, N subjects: 0
  Ligament sprain, N subjects: 0
  Muscle spasms, N subjects: 0
  Nasal congestion, % of subjects: (16.7%)
  Nasal congestion, N subjects: 1
  Pruritis, N subjects: 0
  Rhinitis, N subjects: 0
  URTI, N subjects: 0
[3]; MAD, I-1 350 mg BID
  Headache, N subjects: 0
  Ligament sprain, N subjects: 0
  Muscle spasms, N subjects: 0
  Nasal congestion, N subjects: 0
  Pruritis, N subjects: 0
  URTI, % of subjects: (20.0%)
  URTI, N subjects: 1
[3]; MAD, I-1 600 mg BID
  Headache, N subjects: 0
  Ligament sprain, N subjects: 0
  Muscle spasms, N subjects: 0
  Nasal congestion, N subjects: 0
  Pruritis, N subjects: 0
  Rhinitis, % of subjects: (16.7%)
  Rhinitis, N subjects: 1
  URTI, N subjects: 0
[3]; MAD, I-1 Total
  Headache, N subjects: 0
  Ligament sprain, N subjects: 0
  Muscle spasms, N subjects: 0
  Nasal congestion, % of subjects: (4.3%)
  Nasal congestion, N subjects: 1
  Pruritis, % of subjects: (4.3%)
  Pruritis, N subjects: 1
  Rhinitis, % of subjects: (4.3%)
  Rhinitis, N subjects: 1
  URTI, % of subjects: (4.3%)
  URTI, N subjects: 1
[3]; Phase 1
  QTcF prolongation: did not lead to QTcF prolongation
  changes in heart rate, blood pressure, respiratory rate, pulse oximetry, temperature: No clinically meaningful changes
  changes in hepatic or renal analytes (ALT, AST, ALP, amylase, GGT, bilirubin, creatinine kinase, creatinine): No clinically meaningful changes
  changes in serum glucose: No changes
  hematological changes: No clinically significant hematological changes
  subjects with QTcF ≥500 msec or a change of ≥60 msec from baseline: no subjects
[3]; Phase 1, three in SAD, two in MAD
  subjects with QTcF change of >30 msec from baseline: Five
[3]; Phase 1 SAD and MAD
  interruptions or discontinuations of study drug administration: no interruptions or discontinuations
  overall safety and tolerability: safe and tolerable
[3]; SAD, one subject in 100 mg dose cohort
  TEAE description: syncope lasting less than a minute, moderate in intensity and deemed to be related to the study drug
[3]; SAD, one subject, single dose of 700 mg
  TEAE description: sinus congestion, mild in intensity and deemed not to be related to I-1
[3]; SAD
  subjects with TEAEs, %: 3.7%
[3]; all subjects receiving I-1 (SAD and MAD)
  subjects with treatment emergent adverse events (TEAEs), %: 9.4%
[4]; [9]
  AUC 0-inf/Dose: 153
  AUC 0-t/Dose: 146
[4]; Sprague-Dawley, in vivo, SD Rat, intravenous data using captisol formulation, read-out: Vss
  Vd: 3.13 L/kg
[4]; [10]
  AUC(0-inf): 7.67 µg·h/mL
  AUC(0-t): 7.3 µg·h/mL
  Cmax: 4.99 µg/mL
  Tmax: 0.32 h
[4]; rats, oral, I-1 50 mg/kg vs ADX-102 10 mg/kg
  dose-normalized AUC relative to ADX-102: approximately double
[5]; across all cohorts
  accumulation of the drug: Little to no accumulation
[5]; as dose increased, Phase 1 cohorts
  relation of Cmax and AUC to dose: linear correlation
[5]; oral, 600 mg, top dose 600 mg BID, read-out: Cmax expressed as molar concentration
  Cmax: ~8.5 µM
[5]; oral, multiple day exposures, across cohorts and days, read-out: half-life (t1/2), range of mean values
  half-life: 3.49 to 6.83 h
[5]; po, 50 mg, oral 50 mg BID, Day 1
  AUC(0-t): ~0.148 µg·h/mL
[5]; po, 50 mg, oral 50 mg BID, Day 1, read-out: Mean Cmax
  Cmax: ~0.0702 µg/mL
[5]; po, 50 mg, oral 50 mg BID, Day 1, read-out: Mean t1/2 (converted)
  half-life: ~3.49 h
[5]; po, 50 mg, oral 50 mg BID, Day 10
  AUC(0-t): 0.252 µg·h/mL
[5]; po, 50 mg, oral 50 mg BID, Day 10, read-out: Mean Cmax
  Cmax: 0.0859 µg/mL
[5]; po, 50 mg, oral 50 mg BID, Day 10, read-out: Mean t1/2 (converted)
  half-life: 5.25 h
[5]; po, 150 mg, oral 150 mg BID, Day 1
  AUC(0-t): ~0.809 µg·h/mL
[5]; po, 150 mg, oral 150 mg BID, Day 1, read-out: Mean Cmax
  Cmax: ~0.343 µg/mL
[5]; po, 150 mg, oral 150 mg BID, Day 1, read-out: Mean t1/2 (converted)
  half-life: ~4.86 h
[5]; po, 150 mg, oral 150 mg BID, Day 10
  AUC(0-t): 1.17 µg·h/mL
[5]; po, 150 mg, oral 150 mg BID, Day 10, read-out: Mean Cmax
  Cmax: 0.32 µg/mL
[5]; po, 150 mg, oral 150 mg BID, Day 10, read-out: Mean t1/2 (converted)
  half-life: 6.34 h
[5]; po, 350 mg, oral 350 mg BID, Day 1
  AUC(0-t): ~2.95 µg·h/mL
[5]; po, 350 mg, oral 350 mg BID, Day 1, read-out: Mean Cmax
  Cmax: ~1.19 µg/mL
[5]; po, 350 mg, oral 350 mg BID, Day 1, read-out: Mean t1/2 (converted)
  half-life: ~5.67 h
[5]; po, 350 mg, oral 350 mg BID, Day 10
  AUC(0-t): 4.34 µg·h/mL
[5]; po, 350 mg, oral 350 mg BID, Day 10, read-out: Mean Cmax
  Cmax: 1.23 µg/mL
[5]; po, 350 mg, oral 350 mg BID, Day 10, read-out: Mean t1/2 (converted)
  half-life: 6.83 h
[5]; po, 600 mg, oral 600 mg BID, Day 1
  AUC(0-t): ~6.45 µg·h/mL
[5]; po, 600 mg, oral 600 mg BID, Day 1, read-out: Mean Cmax
  Cmax: ~2.23 µg/mL
[5]; po, 600 mg, oral 600 mg BID, Day 1, read-out: Mean t1/2 (converted)
  half-life: ~4.15 h
[5]; po, 600 mg, oral 600 mg BID, Day 10
  AUC(0-t): 7.22 µg·h/mL
[5]; po, 600 mg, oral 600 mg BID, Day 10, read-out: Mean Cmax
  Cmax: 1.7 µg/mL
[5]; po, 600 mg, oral 600 mg BID, Day 10, read-out: Mean t1/2 (converted)
  half-life: 4.66 h
[5]; oral 50 mg BID, Day 1
  Mean AUC0-12: 0.148 µg·h/mL
[5]; oral 50 mg BID, Day 10
  Mean AUC0-12: ~0.252 µg·h/mL
[5]; oral 150 mg BID, Day 1
  Mean AUC0-12: 0.809 µg·h/mL
[5]; oral 150 mg BID, Day 10
  Mean AUC0-12: ~1.17 µg·h/mL
[5]; oral 350 mg BID, Day 1
  Mean AUC0-12: 2.95 µg·h/mL
[5]; oral 350 mg BID, Day 10
  Mean AUC0-12: ~4.34 µg·h/mL
[5]; oral 600 mg BID, Day 1
  Mean AUC0-12: 6.45 µg·h/mL
[5]; oral 600 mg BID, Day 10
  Mean AUC0-12: ~7.22 µg·h/mL
[6]; oral single dose 20 mg
  AUCinf: 0.05 µg·h/mL
[6]; oral single dose 50 mg
  AUCinf: 0.156 µg·h/mL
[6]; oral single dose 100 mg
  AUCinf: 0.433 µg·h/mL
[6]; oral single dose 200 mg
  AUCinf: 1.14 µg·h/mL
[6]; oral single dose 400 mg
  AUCinf: 2.73 µg·h/mL
[6]; oral single dose 700 mg
  AUCinf: 6.71 µg·h/mL
[6]; oral single dose 1200 mg
  AUCinf: 14.5 µg·h/mL
[6]; 20 mg, oral single dose 20 mg
  AUC(0-inf): ~0.05 µg·h/mL
  Cmax: ~0.0264 µg/mL
[6]; 50 mg, oral single dose 50 mg
  AUC(0-inf): ~0.156 µg·h/mL
  Cmax: ~0.0567 µg/mL
[6]; [11]
  AUC(0-inf): ~0.433 µg·h/mL
  Cmax: ~0.14 µg/mL
  half-life: 3.52 h
[6]; [12]
  AUC(0-inf): ~1.14 µg·h/mL
  Cmax: ~0.459 µg/mL
  half-life: 6.04 h
[6]; [13]
  AUC(0-inf): ~2.73 µg·h/mL
  Cmax: ~0.869 µg/mL
  half-life: 6.15 h
[6]; [14]
  AUC(0-inf): ~6.71 µg·h/mL
  Cmax: ~2.02 µg/mL
  half-life: 7.33 h
[6]; [15]
  AUC(0-inf): ~14.5 µg·h/mL
  Cmax: ~4.22 µg/mL
  half-life: 7.69 h
[7]; intravenous data using captisol formulation
  clearance: 3.95 L/h/kg
[7]; oral gavage 50 mg/kg, 0.5% MC
  half-life: 2.96 h
[8]
  solubility in aqueous media: poor solubility in aqueous media
  solubility in non-polar solvents: increased solubility in non-polar solvents
